Paper PMC12508063, “Chloroindazole based estrogen receptor β ligands with favorable pharmacokinetics promote functional remyelination and visual recovery” (Scientific Reports, 2025)
Where “and” joins values, the source holds several entries; their conditions need not be identical. Equal entries are not always repeated. Where two headings read alike, the source gives them in different places.

Experiments:
[1] = Uterine weight and body weight in EAE mice; conditions: for Body weight / Uterine weight / Uterine weight/body weight ratio: EAE mice; for uterine weight relative to body weight: normal or EAE intact female mice
Source text: The animals from Hook EAE experiment Figure 3Bii were used. […] (S6ii) The weight of the uteri removed from mice relative to total body weight along with the raw uterine weight and body weight at the end of this experiment is plotted.

[2] = system: splenocytes from EAE mice; test: Splenocyte cytokine/chemokine analysis ex vivo (MOG35-55 stimulation); format: in vivo, mouse; conditions: K102 5 or 30 mg/kg, K110 10 or 30 mg/kg; 40 dpi
Procedure: Splenocyte Isolation and Cytokine Analysis: Spleens were collected from mice prior to transcardial perfusion, and splenocytes were isolated, counted, and resuspended in RPMI medium. After 1 h incubation, cells were stimulated with 25 µg/mL MOG₃₅-₅₅, and supernatants were collected 48 h later. Cytokine and chemokine levels in the supernatants, including pro- and anti-inflammatory markers as well as chemokines were analyzed by The Cytokine Core (Indianapolis, IN).
In MS and EAE, peripherally activated immune cells release inflammatory cytokines and chemokines, triggering demyelination and axonal damage. To examine how different concentrations of K102 (5 mg/kg or 30 mg/kg) (Fig. 4A) and K110 (10 mg/kg or 30 mg/kg) (Fig. 4B) influence the peripheral immune response, splenocytes were isolated from EAE mice at 40 dpi. These splenocytes were then stimulated ex vivo with MOG35-55 and analyzed for cytokine and chemokine expression.
Splenocyte Isolation and Cytokine Analysis: Spleens were removed from mice prior to transcardial perfusion. After isolation, splenocytes were counted and resuspended in RPMI. Following incubation, splenocytes were stimulated with 25 µg/ml MOG35–55 and supernatants were collected 48 hours later. Levels of the following cytokines and chemokines present in culture supernatants were sent to The Cytokine Core (Indianapolis, IN); pro-inflammatory cytokines: IFNγ, Tumor necrosis factor (TNF)α, IL-1α, IL-1β, IL-3, IL-6, IL9, IL17, Vascular endothelial growth factor (VEGF), CCL5/RANTES and macrophage colony-stimulating factor (M-CSF); anti-inflammatory cytokines: IL-5 and IL-10; chemokines: CXCL10, and CXCL1 were determined.

EAE mice [3] = test: Visual evoked potential (VEP) in EAE; format: in vivo, mouse; conditions: vs vehicle-treated
Procedure: (§1) Optical coherence tomography, electroretinograms and visual evoked potentials: OCT was acquired using the spectral domain‐OCT (R2200 840 nm HHP; Leica, Deerfield, IL) at peak EAE disease according to previously published methods[23],[28]. Each image was taken 3 times and averaged. Automatic segmentation of retinal layers was performed using Bioptigen Diver 3.0 software (Leica Microsystems, Deerfield, IL). ERG and VEPs were measured using the HMsERG200 ([…], Henderson, NV) as previously described[23],[28]. Animals were dark adapted for a minimum of 5 h prior to recording. During acquisition, animals were anesthetized with continuous 2% isoflurane. Traces were averaged and filtered for 60 Hz noise and a low-pass filter. MATLAB was used to adjust baselines and smoothed prior to measuring ERG and VEP amplitudes and latencies.
(§2) Electroretinograms and visual evoked potentials were measured using the HMsERG200 (OcuScience, Henderson, NV) as previously described (8, 9). Animals were dark adapted for a minimum of 5 hours prior to recording. During acquisition, animals were anesthetized with continuous 2% isoflurane. Traces were averaged and filtered for 60 Hz noise and a low-pass filter. MATLAB was used to adjust baselines and smoothed prior to measuring ERG and VEP amplitudes and latencies.

[4] = system: CPZ demyelinating model of MS; test: Cuprizone (CPZ) diet demyelination/remyelination model, corpus callosum IHC; conditions: for CC1 + OLs compared to RM + V / CD45 immunoreactivity compared to 12wkDM / GFAP expression / myelin (MBP, PLP, and MOG staining) compared to RM + V: corpus callosum, 5 mg/kg/day, 3 wk
Source text: CPZ administration and treatment: Mice were fed a diet containing 0.2% bis(cyclohexanone)oxaldihydrazone (CPZ, Teklad Custom Diets, Madison, WI) for 12 weeks, as previously described[15],[27]. A subset of mice was perfused immediately following the 12-week CPZ regimen (12wkDM). […] These mice were perfused and their brains were processed for IHC.

[5] = system: co-cultures of primary cortical neurons and OPCs; test: Axon myelination in co-cultures of primary cortical neurons and OPCs; format: cell-based, mouse; conditions: K102, K110 10 nM; Clemastine, Bazedoxifene 500 nM; 5 days
Source text: Mouse and Human primary cell cultures: Primary OPC/OL culture were isolated from the cortices of postnatal day 0–1 C57BL/6J mice of both sexes, using established protocols[11],[20],[21]. Mouse OPC and Neuronal Co-cultures: Primary neuronal cultures were established in Neurobasal medium with B27 and plated on poly-L-lysine-coated coverslips. After 12 days, OPCs were isolated, counted, and added to neuronal cultures and media was replaced with neuronal and proliferation media for 3 days, then switched to maturation media that maintained both neurons and OLs. Human iPSC-derived OPCs (Tempo’s iOligo™) were expanded, cryopreserved, and later plated on Matrigel-coated coverslips. After 3 days in growth medium, cells were treated for 3 weeks with T3 containing maturation medium. Differentiation into myelin-producing OLs was assessed using O4 (OL surface marker on pre-OLs) and myelin basic protein (MBP) immunohistochemistry. […]
Immunocytochemistry and Image Analysis of cell cultures: After treatment, cells were fixed and stained for MBP and DAPI. […] Cell densities were quantified using ImageJ and normalized to control conditions. MBP-positive cells, their process extensions, and highly branched OLs were counted to assess differentiation. Co-culture images were analyzed for MBP and β3-tubulin colocalization using JACoP[22] in ImageJ, with results validated by manual quantification. […]

[6] = biological target: T1, full length purified human ERα (Homo sapiens, UniProt P03372); test: competitive ligand binding assay, tritiated estradiol as tracer
T1 construct: full length purified human ERα and ERβ
T1 sequence (P03372 whole entry): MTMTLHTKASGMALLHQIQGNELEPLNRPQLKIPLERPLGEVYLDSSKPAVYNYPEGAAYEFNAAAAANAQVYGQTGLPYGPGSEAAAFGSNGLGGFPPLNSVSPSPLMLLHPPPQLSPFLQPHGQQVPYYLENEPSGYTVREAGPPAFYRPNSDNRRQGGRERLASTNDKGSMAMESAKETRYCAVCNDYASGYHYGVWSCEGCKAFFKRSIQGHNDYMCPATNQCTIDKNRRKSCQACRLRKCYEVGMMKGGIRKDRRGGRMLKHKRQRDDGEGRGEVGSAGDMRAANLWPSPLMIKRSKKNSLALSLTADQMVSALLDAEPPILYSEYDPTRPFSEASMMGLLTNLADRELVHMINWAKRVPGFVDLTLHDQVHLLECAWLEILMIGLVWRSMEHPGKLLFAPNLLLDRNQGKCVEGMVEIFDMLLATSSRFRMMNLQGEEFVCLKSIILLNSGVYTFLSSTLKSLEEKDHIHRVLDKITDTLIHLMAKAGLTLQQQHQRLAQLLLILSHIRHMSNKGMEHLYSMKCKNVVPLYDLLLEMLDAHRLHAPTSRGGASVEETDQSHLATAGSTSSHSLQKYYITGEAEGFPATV

[7] = Stability in human plasma; format: in vitro ADME
EAE mice [8] = test: Electroretinogram (ERG) in EAE; format: in vivo, mouse; conditions: for ERG A-wave and B-wave amplitude: vs vehicle-treated mice
Procedure: as §1, §2

[9] = biological target: T2, full length purified human ERβ (Homo sapiens, UniProt Q92731); test: competitive ligand binding assay, tritiated estradiol as tracer; conditions: for RBA β/α ratio: ERβ/ERα relative affinity ratio
T2 construct: full length purified human ERα and ERβ
T2 sequence (Q92731 whole entry): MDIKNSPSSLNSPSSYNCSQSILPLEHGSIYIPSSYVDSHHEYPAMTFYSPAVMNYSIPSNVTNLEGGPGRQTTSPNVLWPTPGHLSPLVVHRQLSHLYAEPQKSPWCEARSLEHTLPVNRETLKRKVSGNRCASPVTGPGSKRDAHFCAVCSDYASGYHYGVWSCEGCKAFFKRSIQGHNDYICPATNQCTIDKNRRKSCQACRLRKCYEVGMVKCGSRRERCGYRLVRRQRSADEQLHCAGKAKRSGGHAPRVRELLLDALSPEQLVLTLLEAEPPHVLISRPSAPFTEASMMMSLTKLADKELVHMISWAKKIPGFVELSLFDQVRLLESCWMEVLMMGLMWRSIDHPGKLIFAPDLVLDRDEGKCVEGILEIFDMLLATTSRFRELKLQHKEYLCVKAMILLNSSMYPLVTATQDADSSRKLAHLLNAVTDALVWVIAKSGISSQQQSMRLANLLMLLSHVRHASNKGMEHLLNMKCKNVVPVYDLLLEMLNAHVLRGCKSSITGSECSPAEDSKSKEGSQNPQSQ

primary mouse OPCs = test: OL differentiation in primary mouse OPC culture (MBP, DAPI); format: cell-based; conditions: for MBP+ OLs vs vehicle-treated wells: 10 nM; for number of MBP+ cells vs vehicle: 10 nM and 100 nM, concentration-dependent
Source text: Mouse and Human primary cell cultures: Primary OPC/OL culture were isolated from the cortices of postnatal day 0–1 C57BL/6J mice of both sexes, using established protocols[11],[20],[21]. Mouse OPC and Neuronal Co-cultures: Primary neuronal cultures were established in Neurobasal medium with B27 and plated on poly-L-lysine-coated coverslips. After 12 days, OPCs were isolated, counted, and added to neuronal cultures and media was replaced with neuronal and proliferation media for 3 days, then switched to maturation media that maintained both neurons and OLs. Human iPSC-derived OPCs (Tempo’s iOligo™) were expanded, cryopreserved, and later plated on Matrigel-coated coverslips. After 3 days in growth medium, cells were treated for 3 weeks with T3 containing maturation medium. Differentiation into myelin-producing OLs was assessed using O4 (OL surface marker on pre-OLs) and myelin basic protein (MBP) immunohistochemistry. In all conditions compounds or vehicle were added to culture during differentiation for either 5 days (mouse) or 18 days (human).
Immunocytochemistry and Image Analysis of cell cultures: After treatment, cells were fixed and stained for MBP and DAPI. Coverslips were imaged using a confocal microscope at 10× and 40× objectives. Cell densities were quantified using ImageJ and normalized to control conditions. MBP-positive cells, their process extensions, and highly branched OLs were counted to assess differentiation. Co-culture images were analyzed for MBP and β3-tubulin colocalization using JACoP[22] in ImageJ, with results validated by manual quantification.
Primary OL Progenitor cells (OPC) and Neuronal Cultures: OPC and cortical neuronal cultures were prepared from the cortices of postnatal day P0-P1 C57BL/6J mice of both sexes, following established protocols (1, 2);(3). The single-cell suspension was divided into two tubes. One tube was treated with warm Neuronal Basal media, counted, and plated onto poly-L-lysine (PLL)-coated glass coverslips. The second tube was resuspended in glial growth medium, composed of DMEM-F12 supplemented with 10% fetal bovine serum, and placed in a PLL-coated culture flask for 8–10 days until confluent. Primary OPCs were then isolated by shaking and either co-cultured with primary neurons or plated onto poly-D-lysine-coated glass coverslips (three coverslips per condition, 2x10^6 cells per coverslip). The OPCs were allowed to attach for three days, followed by five days in differentiating media (DMEM-F12 with Sato media containing triiodothyronine and thyroxine) supplemented with various analogues and remyelinating compounds. For comparison, a negative control (vehicle, consisting of the media and ethanol mixture used to dissolve the analogues and remyelinating compounds) and a normal control (differentiating media alone) were included in the experiments.
Quantification of Mature OLs and Co-culture axon myelination: At the conclusion of the treatment period, cells were fixed and subjected to immunocytochemistry to evaluate myelin basic protein (MBP) expression, co-stained with the nuclear marker DAPI (shown in blue). […] Cell counting was performed using the ImageJ multipoint tool, and cell densities were calculated by dividing the counts by the image area (mm²). […]
To assess OL differentiation, the number of MBP-positive (MBP+) cells and process extensions exceeding the diameter of the cell body were quantified.

[10] = Plasma protein binding (human)
CYP3A4 = CYP3A4 (Homo sapiens, UniProt P08684); test: CYP inhibition (midazolam and testosterone substrates); conditions: test compounds at 10 μM; for CYP Inhibition Percentage CYP3A4-M: substrate Midazolam
Sequence of CYP3A4 (P08684 whole entry): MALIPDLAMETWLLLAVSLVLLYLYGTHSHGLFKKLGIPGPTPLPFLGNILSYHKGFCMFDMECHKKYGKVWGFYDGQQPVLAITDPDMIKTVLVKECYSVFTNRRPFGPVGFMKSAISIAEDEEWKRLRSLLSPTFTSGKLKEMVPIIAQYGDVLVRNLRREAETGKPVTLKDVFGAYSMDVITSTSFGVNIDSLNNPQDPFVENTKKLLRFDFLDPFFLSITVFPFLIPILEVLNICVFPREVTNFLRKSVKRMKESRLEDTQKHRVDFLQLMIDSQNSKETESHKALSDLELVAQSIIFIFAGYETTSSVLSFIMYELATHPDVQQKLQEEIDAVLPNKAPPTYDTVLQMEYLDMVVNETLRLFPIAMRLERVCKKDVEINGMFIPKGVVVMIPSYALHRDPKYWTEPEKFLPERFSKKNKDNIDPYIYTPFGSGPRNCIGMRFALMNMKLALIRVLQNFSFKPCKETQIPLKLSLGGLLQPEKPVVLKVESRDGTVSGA

[11] = for Kp uu Brain Mean / Kp uu Uterus Mean: 40 mg/kg PO; for K p,uu,brain Cmax: single dose oral PK in mouse at 40 mg/kg
Procedure: Plasma samples were 100% plasma or 5-fold diluted plasma; brain homogenate samples were diluted 5-fold with buffer, while uterus homogenate samples were initially diluted 5-fold and then further diluted to 20-fold. Equilibrium dialysis was performed in a 96-well plate system with wells containing 80 µL of buffer and 80 µL of the sample on opposite sides of the membrane. After incubation at 37°C for 5 hours with shaking at 180 rpm, aliquots were collected from both sides of the membrane for further analysis.
For plasma samples, 50 µL of sample was mixed with 50 µL of phosphate buffer, followed by addition of 300 µL quenching solution containing internal standards and DMSO. For 5-fold diluted plasma samples, 35 µL of sample was mixed with 35 µL of blank buffer, followed by 280 µL quenching solution. For tissue homogenate samples, 50 µL samples were mixed with 50 µL of phosphate buffer, followed by 200 µL quenching solution. All samples were vortexed for 1 minute, and centrifuged at 4,000 rpm for 15 minutes, and the supernatant collected for LC-MS/MS analysis, which was performed using an API 5500 mass spectrometer with an ACQUITY UPLC BEH 1.7 μm C18 100 Å column (2.1 mm * 50 mm) and ACE Excel 5 C4 (2.1 * 50 mm) column. Mobile phases were 0.1% formic acid in water or 5 mM NH4OAc with 0.05% formic acid in water (A) and 0.1% formic acid in acetonitrile (B). Run times were 8 minutes for plasma samples and 5 minutes for other sample types. The mass spectrometer was operated in positive electrospray ionization mode.
Free fraction (fu) and recovery were calculated using specific equations for each sample type. For plasma samples, fu (%) was calculated as (Cbuffer / Cplasma) * 100%, and recovery (%) as ((Cplasma + Cbuffer) / T0) * 100%. For 5-fold diluted plasma samples, fu,20% (%) was calculated as (Cbuffer / Cplasma) * 100%, and fu,100% (%) as fu,20% / (5 - 4 * fu,20%) * 100%. Similar equations were used for uterus and brain samples, accounting for their respective dilution factors. These calculations allowed for the determination of the free fraction of the test compound in various tissue compartments and the assessment of recovery rates.

EAE mice [12] = test: Rotarod motor performance in EAE; format: in vivo, mouse; conditions: 5 mg/kg SC
Procedure: EAE induction and treatment: EAE was induced in 8–10-week-old wild-type C57BL/6J mice using MOG₃₅-₅₅ peptide[11],[14],[23]–[25]. Mice were scored daily using a standard clinical scale (0–5) and tested for their ability to stay on a rotarod. […] At peak disease (18–22 days post-immunization), animals were grouped into EAE+Vehicle, EAE+K102, and EAE+K110.
Rotarod Motor Performance: Mice cages were moved to the behavioral room 1 hour prior to testing. Motor performance was assessed using the Rotarod apparatus (Med Associates, Inc., St. Albans, VT) as previously performed with modifications(5, 6). Briefly, mice were placed on the rotating horizontal rod set to a speed of 3 – 30 rpm for a maximum of 300 seconds. The amount of time the mouse was able to walk on the accelerating rod was recorded. Each mouse was tested in three trials separated by 15 minute intertrial intervals. The average of the three trials was reported as a single value for each mouse. Statistical analysis was performed in GraphPad Prism 10 software using Mann-Whitney test.

[13] = relative binding affinity, estradiol = 100

Cc1cc(O)ccc1-n1nc2ccc(O)cc2c1Cl [Compound K102, IndCl-o-Me]
Body weight ([1]; group average): 20.124 | Uterine weight ([1]; group average): 0.055 | Uterine weight/body weight ratio ([1]; group average): 0.275 | Body weight ([1]; individual animals): 19.160 and 19.460 and 20.910 and 21.110 and 19.980 | Uterine weight ([1]; individual animals): 0.0650 and 0.0330 and 0.0810 and 0.0490 | Uterine weight/body weight ratio ([1]; individual animals): 0.3392 and 0.1696 and 0.3874 and 0.2321 and 0.2452 | uterine weight relative to body weight [1]: no increase | CXCL1 production [2]: did not affect | CXCL10 levels compared to vehicle [2]: reduced | certain anti-inflammatory cytokines compared to vehicle [2]: significantly lower | pro-inflammatory cytokine levels compared to vehicle [2]: reduced | VEP P1 (or N2) amplitude (EAE mice [3]): significant increase | VEP P1 latency (EAE mice [3]): reduction | RM/N (remyelination with cpd. vs. normal) ([4]; PO): 76% | RM/RM-V (remyelination with cpd. vs. spontaneous remyelination without cpd) ([4]; PO): 121% | RM/N (remyelination with cpd. vs. normal) ([4]; SC, 5 mg/kg): 94% | RM/RM-V (remyelination with cpd. vs. spontaneous remyelination without cpd) ([4]; SC, 5 mg/kg): 149% | CC1 + OLs compared to RM + V [4]: further increase | CD45 immunoreactivity compared to 12wkDM [4]: small but significant decrease | GFAP expression [4]: remained unchanged | myelin (MBP, PLP, and MOG staining) compared to RM + V [4]: significant increase | OL processes wrapping axons [5]: significant increase | RBA ERα [6]: 0.37 | % Remaining at 6 hr in Human Plasma [7]: 89.39% | ERG B-wave latency (EAE mice [8]): improved | ERG A-wave and B-wave amplitude (EAE mice [8]): significant increase | RBA ERβ [9]: 24.0 | RBA β/α ratio [9]: 65 | MBP+ OLs vs vehicle-treated wells (primary mouse OPCs): significant increase | number of MBP+ cells vs vehicle (primary mouse OPCs): significantly increased | Protein Binding (% Bound) Human [10]: 97.08% | CYP Inhibition Percentage CYP3A4-M (CYP3A4): 50.95% | CYP Inhibition Percentage CYP3A4-T (CYP3A4; substrate Testosterone, 10 µM): 77% and 76.99% | Kp uu Brain Mean ([11]; 0.5 hr): 0.581 | Kp uu Uterus Mean ([11]; 0.5 hr): 0.269 | Kp uu Brain Mean ([11]; 2.0 hr): 0.333 | Kp uu Uterus Mean ([11]; 2.0 hr): 0.380 | Kp uu Brain Mean ([11]; 4.0 hr): 0.629 | Kp uu Uterus Mean ([11]; 4.0 hr): 8.681 | Kp uu Brain Mean ([11]; 8.0 hr): 0.325 | Kp uu Uterus Mean ([11]; 8.0 hr): 3.086 | K p,uu,brain Cmax [11]: 0.63 | ability to remain on the rotarod (EAE mice [12]): non-significant improvement

Oc1ccc(-n2nc3ccc(O)cc3c2Cl)c(O)c1 [Compound K110, IndCl-o-OH]
Body weight ([1]; group average): 15.27 | Uterine weight ([1]; group average): 0.04 | Uterine weight/body weight ratio ([1]; group average): 0.26 | Body weight ([1]; individual animals): 14.58 and 15.48 and 15.50 and 14.68 and 16.10 | Uterine weight ([1]; individual animals): 0.044 and 0.027 and 0.034 and 0.056 | Uterine weight/body weight ratio ([1]; individual animals): 0.3018 and 0.1744 and 0.2194 and 0.3815 and 0.2112 | uterine weight relative to body weight [1]: no increase | CXCL1 production [2]: did not affect | CXCL10 levels compared to vehicle [2]: reduced | certain anti-inflammatory cytokines compared to vehicle [2]: significantly lower | pro-inflammatory cytokine levels compared to vehicle [2]: reduced | VEP P1 (or N2) amplitude (EAE mice [3]): did not affect | VEP P1 latency (EAE mice [3]): did reduce | RM/N (remyelination with cpd. vs. normal) ([4]; PO): 100% | RM/RM-V (remyelination with cpd. vs. spontaneous remyelination without cpd) ([4]; PO): 127% | RM/N (remyelination with cpd. vs. normal) ([4]; SC, 5 mg/kg): 84% | RM/RM-V (remyelination with cpd. vs. spontaneous remyelination without cpd) ([4]; SC, 5 mg/kg): 133% | CC1 + OLs compared to RM + V [4]: further increase | CD45 immunoreactivity compared to 12wkDM [4]: small but significant decrease | GFAP expression [4]: remained unchanged | myelin (MBP, PLP, and MOG staining) compared to RM + V [4]: significant increase | OL processes wrapping axons [5]: significant increase | RBA ERα [6, 13]: 0.09 | % Remaining at 6 hr in Human Plasma [7]: 105.99% | ERG B-wave latency (EAE mice [8]): improved | ERG A-wave and B-wave amplitude (EAE mice [8]): significant increase | RBA β/α ratio [9]: 48 | RBA ERβ [9, 13]: 4.35 | MBP+ OLs vs vehicle-treated wells (primary mouse OPCs): significant increase | number of MBP+ cells vs vehicle (primary mouse OPCs): significantly increased | CYP Inhibition Percentage CYP3A4-M (CYP3A4): 13.95% | Kp uu Brain Mean ([11]; 0.5 hr): 0.232 | Kp uu Uterus Mean ([11]; 0.5 hr): 0.516 | Kp uu Brain Mean ([11]; 2.0 hr): 0.802 | Kp uu Uterus Mean ([11]; 2.0 hr): 10.651 | Kp uu Brain Mean ([11]; 4.0 hr): 0.280 | Kp uu Uterus Mean ([11]; 4.0 hr): 45.849 | Kp uu Brain Mean ([11]; 8.0 hr): 0.294 | Kp uu Uterus Mean ([11]; 8.0 hr): 6.280 | K p,uu,brain Cmax ([11]; 40 mg/kg): 0.8 | ability to remain on the rotarod (EAE mice [12]): non-significant improvement
